Assay results: patent US9827326B2, “Polymer-sunitinib conjugates” (Nektar Therapeutics, priority 2010, dated 2017)
Like-named read-outs stand apart in the source and are kept apart here.

Assay: In vitro release of conjugates in phosphate buffer (Method E)
Format: physicochemical
Experimental: In vitro release for conjugates in buffer: In separate containers Compound 2a (˜0.1-0.5 mg/mL), Compound 3a (˜0.5-5 mg/mL) and Compound 4a (˜0.2-1 mg/mL) were dissolved in 100 mM phosphate buffer pH 7.5 (or other pH values as indicated). The conjugates were filtered through a 0.2 micron filter into a HPLC vial. The HPLC sample vials were incubated at 37° C. and injected at various intervals on a HPLC system with C18 silica column applying an acetonitrile gradient with 0.1% TFA; retention times observed were sunitinib ˜3.5 minutes and conjugates either ˜2.2 minutes for Compound 2a or ˜10.8 minutes for Compounds 3a or 4a. Release data for the t1/2 values were obtained from the slope of the linear fit to a plot of ln(A(conjugate)/A0(conjugate)) vs. time, according to the first order rate law.
The half-lives observed for several sunitinib conjugates of the invention were determined in buffer and plasma according to the descriptions in “Method E” provided in the Experimental.

Work on `CCN(CC)CCN(C(=O)OCC(O)CO)C(=O)c1c(C)[nH]c(/C=C2\C(=O)Nc3ccc(F)cc32)c1C` (centres unmarked) [Compound 1e, (Z)-2,3-dihydroxypropyl 2-(diethylamino)ethyl(5-((5-fluoro-2-oxoindolin-3-ylidene)methyl)-2,4-dimethyl-1H-pyrrole-3-carbonyl)carbamate] yielded a half-life (100 mM phosphate buffer pH 7.5, 37° C., read-out: Release half-life, Phosphate pH 7.5) of about 3 min and a half-life (phosphate buffer pH 6.8, 37° C., read-out: Release half-life, Phosphate pH 6.8) of about 10 min.
